Measurements taken from patent US7863416B2, “Nociceptin-based analgesics” (Synvax, Inc., priority 2001, dated 2011).
Numbered stars: 1 amine (or outer) side, 2 acyl side, 3 side chain; on linkers, the order of the positions; unused ones are H or OH. Square brackets hold non-standard residues; d marks the D form. Peptide text beside a SMILES is read from it. X1 = O=C([C@H](CCc1ccc([N+](=O)[O-])cc1[N+](=O)[O-])N[*:1])[*:2]; Phe(4-CH2SO3H) = N[C@@H](Cc1ccc(CS(=O)(=O)O)cc1)C(=O)O; Phe(4-NO2) = N[C@@H](Cc1ccc([N+](=O)[O-])cc1)C(=O)O; Phe(4-CH2NH2) = NCc1ccc(C[C@H](N)C(=O)O)cc1; Phe(4-NH2) = Nc1ccc(C[C@H](N)C(=O)O)cc1; Phe(4-F) = N[C@@H](Cc1ccc(F)cc1)C(=O)O; Dmt = Cc1cc(O)cc(C)c1C[C@H](N)C(=O)O; Dab = NCC[C@H](N)C(=O)O; Dap = NC[C@H](N)C(=O)O; Ahx = NCCCCCC(=O)O

How the values were obtained:
human ORL1 [1] = biological target: T1, human ORL1 (Homo sapiens, UniProt P41146); assay: [3H]nociceptin binding to membranes of CHO cells transfected with human ORL1; settings: for Hill Coefficient: Table 5
T1 construct: expressed in transfected cells; host or cells: CHO cells (G418-selected)

human ORL1 [2] = biological target: T1, human ORL1; assay: Stimulation of [35S]GTPγS binding in membranes of CHO cells transfected with human ORL-1; assay type: biochemical; settings: for Emax: read-out: % Stimulation ± SEM of [35S]GTPγS binding; for EC50 ± SEM, stimulation of [35S]GTPγS binding: Table 6
Protocol: First, CHO cells transfected with human ORL-1 are scraped from tissue culture dishes into 20 mM HEPES, 1 mM EDTA, and then centrifuged at 500×g for 10 minutes. The cells are then re-suspended in this buffer and homogenized using a Polytron Homogenizer.
The cellular homogenate is next centrifuged at 20,000×g for 20 minutes. Following this, the resulting pellet is re-suspended in a buffer containing 20 mM HEPES, 10 mM MgCl2, and 100 mM NaCl, having a resulting pH of 7.4. The suspension is then re-centrifuged at 20,000×g and suspended once more in the above-listed buffer. The pellet may be frozen at −70° C. prior to the final centrifugation. For the binding assay, membranes (10-20 μg protein) are incubated with [^35S]GTPγγS (50 pM), GDP (usually 10 μM), and the desired compound. The total volume of the mixture is 1 ml, which is incubated for 60 min at 25° C.
Following incubation, samples are filtered over glass fiber filters and counted. […]
In these [^35S]GTPγS assays, binding was conducted as described above. EC50 values and percent stimulation were determined using the program Prism.

T1 sequence (P41146 whole entry): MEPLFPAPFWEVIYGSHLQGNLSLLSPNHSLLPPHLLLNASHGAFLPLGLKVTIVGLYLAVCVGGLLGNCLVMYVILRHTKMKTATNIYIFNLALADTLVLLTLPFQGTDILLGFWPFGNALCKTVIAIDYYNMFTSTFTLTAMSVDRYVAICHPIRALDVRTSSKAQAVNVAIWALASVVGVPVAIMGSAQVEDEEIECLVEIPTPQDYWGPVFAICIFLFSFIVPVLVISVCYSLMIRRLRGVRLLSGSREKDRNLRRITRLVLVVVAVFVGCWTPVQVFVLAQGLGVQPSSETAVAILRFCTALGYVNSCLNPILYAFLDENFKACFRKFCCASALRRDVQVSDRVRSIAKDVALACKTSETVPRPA

Compound	Hill Coefficient (human ORL1 [1])	Emax (human ORL1 [2])	EC50 ± SEM, stimulation of [35S]GTPγS binding (human ORL1 [2])	also measured
CC(=O)NCCCCCC(=O)N[C@@H](Cc1ccc(O)cc1)C(=O)N[C@@H](Cc1ccc(O)cc1)C(=O)N[C@@H](CCCNC(=N)N)C(=O)N[C@@H](Cc1c[nH]c2ccccc12)C(=O)N[C@@H](CCCNC(=N)N)C(N)=O [VII-53-B, Ac-ε-aminocaproyl-Tyr-Tyr-Arg-Trp-Arg-NH2] (Ac-[Ahx]YYRWR-NH2)	0.86	39.5 ± 4%	–	–
CC(=O)N[C@@H](CCCNC(=N)N)C(=O)N[C@@H](Cc1ccc(O)cc1)C(=O)N[C@@H](Cc1ccc(O)cc1)C(=O)NCCCCCC(=O)N[C@@H](Cc1c[nH]c2ccccc12)C(=O)N[C@@H](CCCNC(=N)N)C(N)=O [VII-55-A, Ac-Arg-Tyr-Tyr-ε-aminocaproyl-Trp-Arg-NH2] (Ac-RYY[Ahx]WR-NH2)	1.12	26.6 ± 1.95%	–	–
CC(=O)N[C@@H](CCCNC(=N)N)C(=O)N[C@@H](Cc1ccc(O)cc1)C(=O)N[C@@H](Cc1ccc(O)cc1)C(=O)N[C@@H](CCCNC(=N)N)C(=O)N[C@@H](Cc1c[nH]c2ccccc12)C(=O)NCCCCCC(N)=O [VII-57-C, Ac-Arg-Tyr-Tyr-Arg-Trp-ε-aminocaproyl-NH2] (Ac-RYYRW[Ahx]-NH2)	0.95	37.4 ± 2.64%	–	–
CC(=O)N[C@@H](CCCNC(=N)N)C(=O)N[C@@H](Cc1ccc(O)cc1)C(=O)N[C@@H](Cc1ccc(F)cc1)C(=O)N[C@@H](CCCNC(=N)N)C(=O)N[C@@H](Cc1c[nH]c2ccccc12)C(=O)N[C@@H](CCCNC(=N)N)C(N)=O [VII-61-B, Ac-Arg-Tyr-Phe(4-F)-Arg-Trp-Arg-NH2] (Ac-RY[Phe(4-F)]RWR-NH2)	1.05	70.4 ± 1.98%	–	Ki (human ORL1 [1]): 50 pM
CC(=O)N[C@@H](CCCNC(=N)N)C(=O)N[C@@H](Cc1ccc(O)cc1)C(=O)N[C@@H](Cc1ccc([N+](=O)[O-])cc1)C(=O)N[C@@H](CCCNC(=N)N)C(=O)N[C@@H](Cc1c[nH]c2ccccc12)C(=O)N[C@@H](CCCNC(=N)N)C(N)=O [VII-63-B, Ac-Arg-Tyr-Phe(4-NO2)-Arg-Trp-Arg-NH2] (Ac-RY[Phe(4-NO2)]RWR-NH2)	1.01	43.2 ± 0.59%	–	–
CC(=O)N[C@@H](CN)C(=O)N[C@@H](Cc1ccc(O)cc1)C(=O)N[C@@H](Cc1ccc(O)cc1)C(=O)N[C@@H](CCCNC(=N)N)C(=O)N[C@@H](Cc1c[nH]c2ccccc12)C(=O)N[C@@H](CCCNC(=N)N)C(N)=O [VII-65-F, Ac-Dap-Tyr-Tyr-Arg-Trp-Arg-NH2] (Ac-[Dap]YYRWR-NH2)	1.1	13.7 ± 1.18%	FLAT	–
CC(=O)N[C@@H](CCN)C(=O)N[C@@H](Cc1ccc(O)cc1)C(=O)N[C@@H](Cc1ccc(O)cc1)C(=O)N[C@@H](CCCNC(=N)N)C(=O)N[C@@H](Cc1c[nH]c2ccccc12)C(=O)N[C@@H](CCCNC(=N)N)C(N)=O [VII-67-A, Ac-Dab-Tyr-Tyr-Arg-Trp-Arg-NH2] (Ac-[Dab]YYRWR-NH2)	1.07	< 20%	FLAT	–
CC(=O)N[C@@H](CCCNC(=N)N)C(=O)N[C@@H](Cc1ccc(O)cc1)C(=O)N[C@@H](CCc1ccc([N+](=O)[O-])cc1[N+](=O)[O-])C(=O)N[C@@H](CCCNC(=N)N)C(=O)N[C@@H](Cc1c[nH]c2ccccc12)C(=O)N[C@@H](CCCNC(=N)N)C(N)=O [VII-71-B, Ac-Arg-Tyr-hPhe(2,4-di-NO2)-Arg-Trp-Arg-NH2] (Ac-RY[X1]RWR-NH2)	0.88	33.6 ± 16.8%	–	–
CC(=O)N[C@@H](CCCNC(=N)N)C(=O)N[C@@H](Cc1ccc(O)cc1)C(=O)N[C@@H](Cc1c(C)cc(O)cc1C)C(=O)N[C@@H](CCCNC(=N)N)C(=O)N[C@@H](Cc1c[nH]c2ccccc12)C(=O)N[C@@H](CCCNC(=N)N)C(N)=O [VII-73-A, Ac-Arg-Tyr-Tyr(2,6-di-Me)-Arg-Trp-Arg-NH2] (Ac-RY[Dmt]RWR-NH2)	0.95	52.7 ± 0.175%	–	–
CC(=O)N[C@@H](CCCNC(=N)N)C(=O)N[C@@H](Cc1ccc(O)cc1)C(=O)N[C@@H](Cc1ccc(CS(=O)(=O)O)cc1)C(=O)N[C@@H](CCCNC(=N)N)C(=O)N[C@@H](Cc1c[nH]c2ccccc12)C(=O)N[C@@H](CCCNC(=N)N)C(N)=O [VII-75-B, Ac-Arg-Tyr-Phe(4-CH2SO3H)-Arg-Trp-Arg-NH2] (Ac-RY[Phe(4-CH2SO3H)]RWR-NH2)	0.75	< 20%	FLAT	–
CC(=O)Nc1ccc(C[C@H](NC(=O)[C@H](Cc2ccc(O)cc2)NC(=O)[C@H](CCCNC(=N)N)NC(C)=O)C(=O)N[C@@H](CCCNC(=N)N)C(=O)N[C@@H](Cc2c[nH]c3ccccc23)C(=O)N[C@@H](CCCNC(=N)N)C(N)=O)cc1 [VII-77-A, Ac-Arg-Tyr-Phe(4-NHAc)-Arg-Trp-Arg-NH2] (Ac-RY[Phe(4-NH2)](Ac)RWR-NH2)	0.62	19 ± 6.92%	–	–
CC(=O)N[C@@H](CCCNC(=N)N)C(=O)N[C@@H](Cc1ccc(O)cc1)C(=O)N[C@@H](Cc1ccc(CN)cc1)C(=O)N[C@@H](CCCNC(=N)N)C(=O)N[C@@H](Cc1c[nH]c2ccccc12)C(=O)N[C@@H](CCCNC(=N)N)C(N)=O [VII-79-A, Ac-Arg-Tyr-Phe(4-CH2NH2)-Arg-Trp-Arg-NH2] (Ac-RY[Phe(4-CH2NH2)]RWR-NH2)	0.89	< 20%	FLAT	–
Ac-RY(D)YR(D)WRNH2 [IV-12-B]	–	–	–	IC50 (human ORL1 [1]; read-out: [3H]nociceptin Binding IC50, Table 1): 1.15 µM; EC50 (human ORL1 [2]; Table 1, read-out: [35S]GTPγS Binding EC50): > 10 µM; [35S]GTPγS Binding Percent Stimulation (human ORL1 [2]; Table 1, relative to nociceptin): <10%
β-Nva-Arg-Tyr-Tyr-Arg-Trp-Arg-NH2 (βNva-RYYRWR-NH2) [VII-2-A]	1.0	–	FLAT	–
